Measurements taken from paper PMC6409716, “Centipede KCNQ Inhibitor SsTx Also Targets KV1.3” (Toxins, 2019).
Read-outs that look alike come from different tables or passages of the source. Bridges are numbered along the chain shown (N, C = ends). Where no end group is shown, it is not given here.

Columns and labels:
KV1.3 = molecular target: T1, KV1.3 (Homo sapiens, UniProt P22001); assay: Whole-cell patch-clamp, KV1.3; assay type: cell-based; conditions: whole-cell recording, HEK293T and CHO cells transfected, 1000-ms depolarizing pulse of 10 mV from −80 mV, pH 7.3, room temperature, Hill fit
T1 construct: expressed in transfected cells; host or cells: HEK293T and CHO cells
Procedure: (§1) HEK293T and CHO cells were cultured as described in our previous work. The plasmid DNA (5μL, 1 μg/μL) of KV1.3 and KV7.4 channel was mixed with lipofectamine at a ratio of 1:1 in 200 μL Opti-MEM for 15–20 min, and the mixture was transferred to the cells plated in 20 mm cell culture dish for 12 h. After 24 h transfections, electrophysiological experiments were carried out at room temperature.
(§2) The cells expressing KV1.3 and KV7.4 were digested and plated on glass coverslips before current recording. The HEKA EPC10 amplifier (HEKA Elektronik, Ludwigshafen, Germany) was used to record currents in whole cells under the control of PATCHMASTER software (HEKA Elektronik, Ludwigshafen, Germany). A thin-wall borosilicate glass (A-M Systems) was used to pull patch pipettes and then the pipettes were fire-polished to 3–4 megohm. For whole-cell recordings, the capacity current was minimized by amplifier circuitry, and the series resistance was compensated by 30% to 65%. For KV1.3 and KV7.4 channel, intracellular solution contained 140 mM KCl, 10 mM EGTA, 2 mM MgCl2, 1 mM CaCl2, 10 mM HEPES (pH 7.3, adjusted with KOH), and extracellular solution contained 150 mM NaCl, 0.5 mM CaCl2, 5 mM KCl, 1.2 mM MgCl2, 10 mM HEPES (pH 7.3, adjusted with NaOH), and the current traces were tested by a 1000-ms depolarizing pulse of 10 mV from a holding voltage of −80 mV. The Hill logistic equation shown below was used to fit the Dose–response curves:y = 1 − (1 − fmax)/[1 + ([Tx]/IC50) n](1) where n is an empirical Hill coefficient, and fmax is the fraction of current resistant to inhibition at high toxin (Tx) concentration.

KV7.4 = molecular target: T2, KV7.4 (Homo sapiens, UniProt P56696); assay: Whole-cell patch-clamp, KV7.4; assay type: cell-based; conditions: whole-cell recording, HEK293T and CHO cells transfected; 1000-ms depolarizing pulse of 10 mV from −80 mV; pH 7.3; room temperature; Hill fit; n = 5 cells
T2 construct: expressed in transfected cells; host or cells: HEK293T and CHO cells
Procedure: as §1
as §2, with “The Hill logistic equation shown below was used to fit the Dose–response curves:y = 1 − (1 − fmax)/[1 + ([Tx]/IC50) n](1) where n is an empirical Hill coefficient, and fmax is the fraction of current resistant to inhibition at high toxin (Tx) concentration.” left out

[1] = ref [8]; cited from earlier work
Description: With over 3000 species, centipedes, arthropods of the class Chilopoda are widely distributed in both tropical and subtropical regions. Their first pair of legs have been modified into strong mandibles and venomous fangs called forcipules that play a critical role in defense and predation. Centipede stings occur frequently in areas, such as Hawaii, Brazil, Australia, Taiwan, and Japan, evoking an issue of social health care. Centipede toxins are composite mixtures, which are responsible for both local and systemic reactions. Recently, we have identified and characterized several pep ...

[2] = n = 5 cells, read-out: IC50 on KV1.3 (mutants)

T1 sequence (P22001 whole entry): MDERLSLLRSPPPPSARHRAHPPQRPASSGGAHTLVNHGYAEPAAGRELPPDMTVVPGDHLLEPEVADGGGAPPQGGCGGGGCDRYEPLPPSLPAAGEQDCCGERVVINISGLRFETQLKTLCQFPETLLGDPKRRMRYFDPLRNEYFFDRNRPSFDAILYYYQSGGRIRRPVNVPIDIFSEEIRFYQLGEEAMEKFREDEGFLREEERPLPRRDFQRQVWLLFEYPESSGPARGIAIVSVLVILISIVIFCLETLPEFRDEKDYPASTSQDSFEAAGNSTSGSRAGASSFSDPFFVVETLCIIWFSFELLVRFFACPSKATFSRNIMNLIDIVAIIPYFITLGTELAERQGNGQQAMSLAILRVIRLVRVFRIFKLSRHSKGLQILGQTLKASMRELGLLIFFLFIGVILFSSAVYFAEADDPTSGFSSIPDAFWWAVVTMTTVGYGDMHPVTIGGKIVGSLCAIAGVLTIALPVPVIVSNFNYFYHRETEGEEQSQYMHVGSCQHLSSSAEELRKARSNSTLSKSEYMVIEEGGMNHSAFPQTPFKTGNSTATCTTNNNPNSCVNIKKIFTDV
T2 sequence (P56696 whole entry): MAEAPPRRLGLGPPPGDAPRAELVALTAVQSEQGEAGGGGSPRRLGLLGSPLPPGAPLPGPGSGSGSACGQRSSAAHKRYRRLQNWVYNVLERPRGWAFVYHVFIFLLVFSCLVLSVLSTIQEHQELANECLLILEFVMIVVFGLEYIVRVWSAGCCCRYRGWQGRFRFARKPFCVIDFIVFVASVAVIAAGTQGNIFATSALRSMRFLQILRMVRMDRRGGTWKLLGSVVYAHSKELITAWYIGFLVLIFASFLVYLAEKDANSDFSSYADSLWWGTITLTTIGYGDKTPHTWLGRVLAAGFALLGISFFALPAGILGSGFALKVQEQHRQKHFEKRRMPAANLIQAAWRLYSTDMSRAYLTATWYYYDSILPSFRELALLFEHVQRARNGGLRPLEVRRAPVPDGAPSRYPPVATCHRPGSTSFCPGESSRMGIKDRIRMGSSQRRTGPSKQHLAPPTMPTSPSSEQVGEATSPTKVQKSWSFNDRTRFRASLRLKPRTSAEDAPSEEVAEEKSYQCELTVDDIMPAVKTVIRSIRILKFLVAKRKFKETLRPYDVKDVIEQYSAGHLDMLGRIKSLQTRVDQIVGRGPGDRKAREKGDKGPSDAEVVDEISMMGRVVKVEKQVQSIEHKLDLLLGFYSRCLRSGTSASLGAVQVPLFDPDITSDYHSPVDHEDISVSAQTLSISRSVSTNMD

Sequence	IC50 (KV1.3; [2]) [µM]	IC50 (KV1.3; n = 10 cells, read-out: IC50 on KV1.3) [µM]	IC50 (KV7.4) [µM]	lethal toxicity [1]
EVIKKDTPYKARKFPYKSECLKACATSFTGGDESRIQEGKPGFFKCTCYFTTG (disulfide 20-46, 24-48) [SsTx_K11A]	507 ± 0.61	–	–	–
EVIKKDTPYKKAKFPYKSECLKACATSFTGGDESRIQEGKPGFFKCTCYFTTG (disulfide 20-46, 24-48) [SsTx_R12A]	22.23 ± 0.22	–	–	–
EVIKKDTPYKKRAFPYKSECLKACATSFTGGDESRIQEGKPGFFKCTCYFTTG (disulfide 20-46, 24-48) [SsTx_K13A]	526.1 ± 0.48	–	–	–
EVIKKDTPYKKRKFPYKSECLKACATSFTGGDESRIQEGKPGFFKCTCYFTTG (disulfide 20-46, 24-48) [SsTx, Ssm Spooky Toxin]	–	5.26	2.8 ± 0.23	potent lethal toxicity by causing severe vessels and respiratory disorders or seizures
